What was measured:
Format in all cases: cell-based
[1] = molecular target: T1, PD‐L1 (Homo sapiens, UniProt Q9NZQ7); experiment: Western blot analysis for PD-L1 degradation, HeLa; details: 24 h, 1:1 ratio (100 μM each)
T1 construct: endogenous in cells; host or cells: HeLa
Method: (§1) We next evaluated PD‐L1 degradation using Western blot (WB) analysis. […] Initially, we verified BMS‐conjugated peptides were non‐toxic by MTT assay (Figure S37, Supporting Information). We then assessed PD‐L1 degradation in HeLa cells after 24‐h treatment with 100 µM Py‐FFK‐Az and varying concentrations of Py‐FFK‐BMS. […] To further assess the effect for Py‐FFK‐Az, we conducted WB analysis with 100 µM Py‐FFK‐BMS at varying concentration for Py‐FFK‐Az. […] PD‐L1 degradation was inhibited by co‐treatment with CAIX inhibitor, confirming the role of CAIX‐mediated endocytosis in lysosomal uptake (Figure S39, Supporting Information). To further validate lysosome‐dependent protein degradation, we conducted WB analysis with chloroquine, a lysosomal inhibitor. […] Furthermore, PD‐L1 fluorescence was restored when chloroquine was co‐administered with the 1:1 Py‐FFK‐Az:Py‐FFK‐BMS mixture, confirming lysosomal involvement in PD‐L1 degradation. […]
(§2) μM Py-FFK-Az and 5μM Py-FFK-Biotin was co-incubated with 400 nM streptavidin-FITC. […]
(§3) as counterstaining agent. IF signals were analyzed using confocal laser scanning microscopy […]
(§4) S.1.22. […] Tumor growth was monitored using the digital caliper. We calculated the tumor volume using the formula [volume = (tumor length) × (tumor width)2/2]. […] The tumor size and body weight were measured and […]
(§5) S.1.23. […] All the data are expressed as mean ± standard deviation (SD). […]

[2] = molecular target: T1, PD‐L1; experiment: Immunofluorescence analysis of PD-L1, HeLa; details: 24 h
Method: as §1, §2, §3, §4, §5

[3] = test system: HeLa; experiment: Endocytosis pathway analysis with inhibitors; details: inhibitor pre-incubated 30 min (400 mM sucrose, 30 μM EIPA), then 100 μM Py-FFK-Az, 5 μM Py-FFK-Biotin, 400 nM streptavidin-FITC 3 h, flow cytometry, n = 3
Method: We next examined the cellular localization of Supra‐LYTAC using CLSM. […] To understand the lysosomal trafficking mechanism, we conducted inhibitor studies. […]
fluorometer (F-7000, Hitachi). The ratio for I1 band and I3 band was plotted to obtain CAC […]
S.1.12. Transmission electron microscopy study. To confirm the peptide self-assembly nanostructures, 50 μM of peptide solution in water was prepared. Then, 8 μL was dropped onto a copper grid. After the droplet is fully dried, it was repeated once more. After that, negative staining was achieved using 2 wt% uranyl acetate solution for 10 min in RT. After washing using DI water, the self-assembly morphology was visualized using JEM-1400 by JEOL and […]
To visualize peptide-protein nanocomplex, streptavidin stock solution was added into the solution consisting of 50 μM peptide solution (mixture of Py-FFK-Az and Py-FFK-Biotin in 20:1 ratio) to obtain 400 nM and 10 μM solutions. Then, TEM sample was prepared with the same protocol of peptide self-assembly visualization.
S.1.13. Circular dichroism spectroscopy. 100 μM peptide solution was initially prepared.
The solution was transferred into quartz cell with 1 mm path length (Hellma), and CD spectrum was recorded using CD spectrometer (J-815, JASCO) under the flow of nitrogen.
S.1.14. FT-IR spectroscopy. 1 mM peptide solution was prepared for FT-IR spectroscopy.
The solution was measured using L1600300 Spectrum TWO LiTa FT-IR spectrometer by […]
S.1.15. Cell culture. HeLa, 4T1, and NIH/3T3 were supplied from Korean Cell Line Bank. […]
After growing for 24 h, Py-FFK-Az, Py-FFK-Biotin, Py-GGK-Az, Py-GGK-Biotin was treated with different concentrations. […] After 4 h incubation, MTT formazan was solubilized by SDS solution, and monitored using SpectraMax M5e Multi Mode Microplate Reader by Molecular Devices.
S.1.17. […] After that, the cells were washed and analyzed using FACSverse (Becton Dickinson And Company).
S.1.18. […] After that, the cells were washed and analyzed using confocal laser scanning microscopy (LSM780 and 880 by ZEISS). […]

T1 sequence (Q9NZQ7 19-290): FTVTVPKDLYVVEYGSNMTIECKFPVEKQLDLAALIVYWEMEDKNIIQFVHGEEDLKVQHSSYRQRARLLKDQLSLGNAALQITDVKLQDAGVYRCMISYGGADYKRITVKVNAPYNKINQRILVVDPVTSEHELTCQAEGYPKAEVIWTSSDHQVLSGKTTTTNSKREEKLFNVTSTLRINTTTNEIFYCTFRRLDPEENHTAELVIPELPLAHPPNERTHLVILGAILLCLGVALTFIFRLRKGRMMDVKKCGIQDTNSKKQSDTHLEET

SMILES | effect of inhibitor co-treatment on PD-L1 degradation by Py-FFK-Az and Py-FFK-BMS (WB) [1] | PD-L1 immunofluorescence on chloroquine co-administration with 1:1 Py-FFK-Az:Py-FFK-BMS [2] | effect of inhibitor on POI uptake by Supra-LYTAC [3]
CCN(CC)CCCC(C)Nc1ccnc2cc(Cl)ccc12 (stereo not drawn) [chloroquine] | significantly reduced PD‐L1 degradation | restored | –
CCN(c1nc(N)c(C(=O)NC(=N)N)nc1Cl)C(C)C [EIPA] | – | – | no effect
CC(=O)Nc1nnc(S(N)(=O)=O)s1 [acetazolamide] | inhibited | – | significantly reduced
OC[C@H]1O[C@@](CO)(O[C@H]2O[C@H](CO)[C@@H](O)[C@H](O)[C@H]2O)[C@@H](O)[C@@H]1O [sucrose] | – | – | substantially reduced

Source: PMC12245127, “Cancer Specific CAIX‐Targeting Supramolecular Lysosome‐Targeting Chimeras (Supra‐LYTAC) for Targeted Protein Degradation” (Advanced Science, 2025)
